Results from patent US10160762B2, “6-alkyl dihydropyrazolopyrimidinone compounds as PDE2 inhibitors” (Merck Sharp & Dohme Corp., priority 2015, dated 2018).
Like-named read-outs stand apart in the source and are kept apart here.

Molecular target: T1, Rhesus PDE2A3 (Macaca mulatta, UniProt B3VTJ2)
T1 construct: made in house; host or cells: AD293 cells, transient transfection; supernatant of sonicated lysate
T1 sequence (B3VTJ2 1-941): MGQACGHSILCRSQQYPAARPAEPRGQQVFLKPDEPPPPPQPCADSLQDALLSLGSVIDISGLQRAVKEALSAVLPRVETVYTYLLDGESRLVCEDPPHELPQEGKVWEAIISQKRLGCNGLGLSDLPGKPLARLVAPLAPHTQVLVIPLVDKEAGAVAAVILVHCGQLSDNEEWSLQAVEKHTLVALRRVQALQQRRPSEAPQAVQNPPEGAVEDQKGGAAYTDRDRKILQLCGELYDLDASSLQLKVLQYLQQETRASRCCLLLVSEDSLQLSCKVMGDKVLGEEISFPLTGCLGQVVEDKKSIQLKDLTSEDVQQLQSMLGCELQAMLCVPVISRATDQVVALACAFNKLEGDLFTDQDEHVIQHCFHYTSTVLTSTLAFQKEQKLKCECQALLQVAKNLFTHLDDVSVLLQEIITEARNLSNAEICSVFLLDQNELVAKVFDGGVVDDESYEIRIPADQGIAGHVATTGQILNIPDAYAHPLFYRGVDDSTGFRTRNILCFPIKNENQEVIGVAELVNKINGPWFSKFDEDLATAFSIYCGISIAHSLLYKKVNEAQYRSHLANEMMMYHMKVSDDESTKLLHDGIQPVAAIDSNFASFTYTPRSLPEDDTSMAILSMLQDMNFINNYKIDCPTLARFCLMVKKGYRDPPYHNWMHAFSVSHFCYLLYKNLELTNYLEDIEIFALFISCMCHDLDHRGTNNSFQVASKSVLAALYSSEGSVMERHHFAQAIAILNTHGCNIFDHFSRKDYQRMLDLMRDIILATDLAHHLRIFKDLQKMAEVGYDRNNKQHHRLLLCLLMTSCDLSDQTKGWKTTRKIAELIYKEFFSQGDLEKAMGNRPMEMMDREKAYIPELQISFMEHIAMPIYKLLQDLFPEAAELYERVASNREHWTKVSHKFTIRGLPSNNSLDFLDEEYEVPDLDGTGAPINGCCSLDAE
Assay: PDE2 fluorescence polarization (IMAP FP) inhibition assay, rhesus PDE2A3
Format: biochemical, rhesus macaque
Summary of the method: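 Enzyme source was the lysate supernatant of AD293 cells transiently expressing rhesus PDE2A3, diluted to give 20% conversion of 50 nM FAM-cAMP, with 1 µM cGMP as activator. Buffer was 10 mM Tris pH 7.2, 10 mM MgCl2, 1 mM DTT.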

[1] = Lab A, read-out: Rhesus PDE2 Ki (nM) Lab A
[2] = Lab B, read-out: Rhesus PDE2 Ki (nM) Lab B

Ki [1] | Ki [2] | SMILES
19 nM |  | Cc1nc2c(c(CO)nn2C(C)c2ccc(C(F)(F)F)cc2)c(=O)[nH]1 (stereo not shown) [Example 7, 3-(Hydroxymethyl)-6-methyl-1-(1-(4-(trifluoromethyl)phenyl)ethyl)-1H-pyrazolo[3,4-d]pyrimidin-4(5H)-one]
 | 54 nM | Cc1nc2c(c(CF)nn2C(c2ccc(C(F)(F)F)cc2)C(C)C)c(=O)[nH]1 (single isomer, unassigned) [Example 212, (R)- or (S)-3-(Fluoromethyl)-6-methyl-1-(2-methyl-1-(4-(trifluoromethyl)phenyl)propyl)-1H-pyrazolo[3,4-d]pyrimidin-4(5H)-one]
179 nM | 318 nM | Cc1nc2c(c(CF)nn2C(C)c2ccc(C(C)(C)C)cc2)c(=O)[nH]1 (single isomer, unassigned) [Example 214, (R)- or (S)-1-(1-(4-tert-Butylphenyl)ethyl)-3-(fluoromethyl)-6-methyl-1H-pyrazolo[3,4-d]pyrimidin-4(5H)-one]
0.24 nM | 0.63 nM | Cc1nc2c(c(CF)nn2C(C)c2ccc(C(C)(C)C)cc2)c(=O)[nH]1 (single isomer, unassigned) [Example 215, (S)- or (R)-1-(1-(4-tert-Butylphenyl)ethyl)-3-(fluoromethyl)-6-methyl-1H-pyrazolo[3,4-d]pyrimidin-4(5H)-one]
3.8 nM | 7.1 nM | Cc1nc2c(c(CO)nn2C(C)c2ccc(OC(F)(F)F)cc2)c(=O)[nH]1 (stereo not shown) [Example 4]
1.3 nM | 3 nM | Cc1nc2c(c(CO)nn2C(C)c2ccc(C(F)(F)F)c(F)c2)c(=O)[nH]1 (single isomer, unassigned) [Example 13, (S)- or (R)-1-(1-(3-Fluoro-4-(trifluoromethyl)phenyl)ethyl)-3-(hydroxymethyl)-6-methyl-1H-pyrazolo[3,4-d]pyrimidin-4(5H)-one]
19 nM | 41 nM | Cc1nc2c(c(CF)nn2C(C)c2ccc(OC(F)(F)F)c(F)c2)c(=O)[nH]1 (single isomer, unassigned) [Example 216, (R)- or (S)-1-(1-(3-Fluoro-4-(trifluoromethoxy)phenyl)ethyl)-3-(fluoromethyl)-6-methyl-1H-pyrazolo[3,4-d]pyrimidin-4(5H)-one]
54 nM | 56 nM | Cc1nc2c(c(CO)nn2C(C)(C)c2ccc(C(F)(F)F)cc2)c(=O)[nH]1 [Example 9, 3-(Hydroxymethyl)-6-methyl-1-{1-methyl-1-[4-(trifluoromethyl)phenyl]ethyl}-1,5-dihydro-4H-pyrazolo[3,4-d]pyrimidin-4-one]
4 nM |  | Cc1nc2c(c(CF)nn2C(C)c2ccc(C(F)(F)F)cc2)c(=O)[nH]1 (stereo not shown) [Example 204, 3-(Fluoromethyl)-6-methyl-1-{1-[4-(trifluoromethyl)phenyl]ethyl}-1,5-dihydro-4H-pyrazolo[3,4-d]pyrimidin-4-one]
 | 1.5 nM | CCC(c1ccc(C(F)(F)F)cc1)n1nc(CO)c2c(=O)[nH]c(C)nc21 (single isomer, unassigned) [Example 132, (R)- or (S)-3-(Hydroxymethyl)-6-methyl-1-(1-(4-(trifluoro-methyl)phenyl)propyl)-1H-pyrazolo[3,4-d]pyrimidin-4(5H)-one]
26 nM | 30 nM | Cc1ccc(C(C)n2nc(CO)c3c(=O)[nH]c(C)nc32)cc1 (stereo not shown) [Example 2, 3-(Hydroxymethyl)-6-methyl-1-(1-p-tolylethyl)-1H-pyrazolo[3,4-d]pyrimidin-4(5H)-one]
 | 6.9 nM | Cc1nc2c(c(CO)nn2C(c2ccc(C(F)(F)F)c(F)c2)C(C)(C)C)c(=O)[nH]1 (single isomer, unassigned) [Example 129, (S)- or (R)-1-(1-(3-Fluoro-4-(trifluoromethyl)phenyl)-2,2-dimethylpropyl)-3-(hydroxyl-methyl)-6-methyl-1H-pyrazolo-[3,4-d]pyrimidin-4(5H)-one]
39 nM | 103 nM | Cc1nc2c(c(CO)nn2C(C)c2ccc(OC(F)(F)F)c(F)c2)c(=O)[nH]1 (single isomer, unassigned) [Example 10, (R)- or (S)-1-(1-(3-Fluoro-4-(trifluoromethoxy)phenyl)ethyl)-3-(hydroxymethyl)-6-methyl-1H-pyrazolo[3,4-d]pyrimidin-4(5H)-one]
 | 0.15 nM | Cc1nc2c(c(CF)nn2C(c2ccc(C(F)(F)F)cc2)C(C)C)c(=O)[nH]1 (single isomer, unassigned) [Example 213, (S)- or (R)-3-(Fluoromethyl)-6-methyl-1-(2-methyl-1-(4-(trifluoromethyl)phenyl)propyl)-1H-pyrazolo[3,4-d]pyrimidin-4(5H)-one]
 | 4.5 nM | Cc1nc2c(c(CO)nn2[C@@H](C)c2ccc(OC(F)(F)F)cc2)c(=O)[nH]1 [Example 158, (S)-3-(Hydroxymethyl)-6-methyl-1-(1-(4-(trifluoromethoxy)phenyl)ethyl)-1H-pyrazolo[3,4-d]pyrimidin-4(5H)-one]
41 nM | 123 nM | Cc1nc2c(c(CF)nn2C(C)c2ccc(OC(F)(F)F)cc2)c(=O)[nH]1 (single isomer, unassigned) [Example 206, (R)- or (S)-3-(Fluoromethyl)-6-methyl-1-(1-(4-(trifluoro-methoxy-)phenyl)ethyl)-1H-pyrazolo[3,4-d]pyrimidin-4(5H)-one]

The remaining lines, values behind:

SMILES | Ki [1] | Ki [2]
Cc1nc2c(c(CF)nn2C(c2ccc(C(F)(F)F)cc2)C2(C)CC2)c(=O)[nH]1 (single isomer, unassigned) [Example 209] |  | 1 nM
COc1cccc(Cc2nc3c(c(C)nn3C(C)c3ccc(C(F)(F)F)cc3)c(=O)[nH]2)c1 (stereo not shown) [Example 45, 6-(3-Methoxybenzyl)-3-methyl-1-{1-[4-(trifluoromethyl)phenyl]ethyl}-1,5-dihydro-4H-pyrazolo[3,4-d]pyrimidin-4-one] | 26 nM | 
Cc1nc2c(c(C(F)F)nn2C(c2ccc(OC(F)(F)F)c(F)c2)C2CC2)c(=O)[nH]1 (stereo not shown) [Example 193, 1-(Cyclopropyl(3-fluoro-4-(trifluoromethoxy)phenyl)methyl)-3-(difluoromethyl)-6-methyl-1H-pyrazolo[3,4-d]pyrimidin-4(5H)-one] |  | 1.2 nM
COCc1nc2c(c(C)nn2C(C)c2ccc(C(F)(F)F)cc2)c(=O)[nH]1 (stereo not shown) [Example 48, 6-(Methoxymethyl)-3-methyl-1-{1-[4-(trifluoromethyl)phenyl]ethyl}-1,5-dihydro-4H-pyrazolo[3,4-d]pyrimidin-4-one] | 36 nM | 
Cc1nc2c(c(C(F)F)nn2C(C)c2ccc(C(F)(F)F)cc2)c(=O)[nH]1 (single isomer, unassigned) [Example 176] |  | 1.4 nM
Cc1nc2c(c(CF)nn2C(C)c2ccc(S(F)(F)(F)(F)F)cc2)c(=O)[nH]1 (single isomer, unassigned) [Example 200] |  | 2.4 nM
COc1ccc(C(=O)c2nc3c(c(C(F)F)nn3C(C)c3ccc(C(F)(F)F)cc3)c(=O)[nH]2)cc1OC (stereo not shown) [Example 198, 3-(Difluoromethyl)-6-(3,4-dimethoxybenzoyl)-1-(1-(4-(trifluoromethyl)phenyl)ethyl)-1H-pyrazolo[3,4-d]pyrimidin-4(5H)-one] |  | 17 nM
COc1ccc(Cc2nc3c(c(C)nn3C(C)c3ccc(C(F)(F)F)cc3)c(=O)[nH]2)cc1 (stereo not shown) [Example 46, 6-(4-Methoxybenzyl)-3-methyl-1-{1-[4-(trifluoromethyl)phenyl]ethyl}-1,5-dihydro-4H-pyrazolo[3,4-d]pyrimidin-4-one] | 7.1 nM | 
Cc1nn(C(C)c2ccc(C(F)(F)F)cc2)c2nc(-c3ccco3)[nH]c(=O)c12 (stereo not shown) [Example 49, 6-Furan-2-yl-3-methyl-1-{1-[4-(trifluoromethyl)phenyl]ethyl}-1,5-dihydro-4H-pyrazolo[3,4-d]pyrimidin-4-one] | 9 nM | 
Cc1nn(C(C)c2ccc(C(F)(F)F)cc2)c2nc(-c3cnn(C)c3)[nH]c(=O)c12 (stereo not shown) [Example 53, 3-Methyl-6-(1-methyl-1H-pyrazol-4-yl)-1-{1-[4-(trifluoromethyl)phenyl]ethyl}-1,5-dihydro-4H-pyrazolo[3,4-d]pyrimidin-4-one] | 29 nM | 
CCOCCc1nc2c(c(C)nn2C(C)c2ccc(C(F)(F)F)cc2)c(=O)[nH]1 (stereo not shown) [Example 35, 6-(2-Ethoxyethyl)-3-methyl-1-(1-(4-(trifluoromethyl)phenyl)ethyl)-1H-pyrazolo[3,4-d]pyrimidin-4(5H)-one] | 164 nM | 
Cc1nn(C(C)c2ccc(C(F)(F)F)cc2)c2nc(C3CC3)[nH]c(=O)c12 (stereo not shown) [Example 42, 6-Cyclopropyl-3-methyl-1-{1-[4-(trifluoromethyl)phenyl]ethyl}-1,5-dihydro-4H-pyrazolo[3,4-d]pyrimidin-4-one] | 58 nM | 
